Laboratory results published in patent publication US20230107216A1, “PANTETHEINE DERIVATIVES AND USES THEREOF” (Comet Therapeutics, Inc., priority 2018, published 2023).
Like-named read-outs stand apart in the source and are kept apart here.

Assays:
[1] = Deuterated and endogenous Coenzyme A in tissues after single and multiple dosing to vitamin B5-deprived mice (LC-MS/MS); assay type: in vivo, C57BL/6N mice
Description: Example 22: Determining Deuterated and Endogenous Coenzyme A in Various Tissues after Single and Multiple Dosing of Compound 1216 to Vitamin B5-Deprived Male C57BL/6N Mice
C57BL6/J male mice were placed on a Vitamin B5 deprived diet for 2 weeks prior to the start of dosing with Compound 1216, single or multiple dosing with either IV or oral administration. […]
The test item and vehicle were administered to the appropriate animals via intravenous (slow bolus) injection to the tail vein (Groups 1-5). In Group 6 test item was administered via oral gavage. The dose volume for each animal was based on the most recent body weight measurement. The animals were temporarily restrained for dose administration and were not sedated. The dose was given using a disposable needle and syringe (intravenous administration) or a stainless steel tube (oral gavage). The dosing formulations were stirred continuously during dose administration, when possible.
Tissue samples were directly removed after sacrifice, together with plasma and CSF and immediately snap frozen in liquid nitrogen and stored at −80° C. […].
Ultrapure water (UPW) was added to the tissue in a 3:1 ratio (e.g. 1 gr tissue+3 ml UPR) and homogenized for 2 minutes at 30/s with 3 beads using a bead mill. Samples were placed on ice and 200 mg weighed in a 2 ml PP tube. 20 μL 50 mM TCEP was added to the sample and vortexed and placed on ice water for 30 minutes. Subsequently 100 μL Perchloric acid was added and the samples was again vortexed and centrifuged for 5 min at 13000 ref (4° C.). Then 225 μL of the supernatant was transferred to a 1.5 mL PP tube. Then 50 μL 3M KOH was added, vortexed and incubated for 2h on ice water. Then 50 μL 3M HCl was added and again vortexed and centrifuged for 5 min at 13000 rcf (4° C.). 100 μL of the supernatant was transferred to a 1.5 mL PP tube, 150 μL UPW was added, and the samples was again vortexed. Then 200 μL of the supernatant was transferred to a 96-wells plate and the samples were ready for measurement. […]

[2] = test system: monocyte-derived M1 macrophages; assay: M1 differentiation assay (macrophage TNFα, IL6, IL10 ELISA, FACS); assay type: cell-based, human; settings: Homo sapiens, Macrophage, 10 uM
Summary of the method: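 CD14+ human blood monocytes (100,000) differentiated 6 days with 10 ng/ml GM-CSF plus compound at 10 or 50 μM, refreshed days 2 and 4. Matured 24 h with GM-CSF, IFNγ, LPS plus compound. Supernatant TNFα, IL6, IL10 by ELISA; FACS M1 phenotype CD86+CD68+CD163−.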

[3] = Treg differentiation assay; assay type: cell-based; settings: human
Description: Naïve CD4+ T cells (Stemcell, 17555) were isolated from PBMC and placed (20,000 cells/well) in 10 μg/ml anti-CD3 antibody (eBioscience, 16-0037-85) pre-coated 96-well flat bottom plate (Eppendorf, Cat #30730119) for 3 hours at 37° C. in an X-VIVO15 medium (Lonza, 04-418Q) supplemented with 15% FBS (Hyclone SV30087.03) and 1% Penicillin-Streptomycin (Hyclone, SV30010). Treg induction cocktail was added including 2 μg/ml anti-CD28 (eBioscience 16-0289-85), 20 ng/ml IL-2 (R&D, 202-IL-050) 0.2 ng/ml TGF-β1 (Peprotech, 100-21-50) in the presence of the compounds at 10 and 50 μM dose. On day 3 half of the medium, was refreshed with Treg differentiation cocktail as above and compounds (10 and 50 μM). On day 5 cells were collected and the following staining were performed: live/dead (Invitrogen, L34963), and Foxp3/Transcription Factor Staining Buffer Set (EBioscience, 00-5523-00), mouse anti-human FoxP3 (BD, 560046) or mouse IgG1, κIsotype control (BD, 555749) and analyzed by FACS (BD LSR Fortessa, 853492).

[4] = test system: primary fibroblasts (healthy controls and PA, MMA, BCKDK, PDH, VLCAD, LS, PC, GA, VLCFA, KSS, FXN, HD); assay: Measurement of ROS (H2DCFDA) in primary fibroblasts; assay type: cell-based, human; settings: Homo sapiens, Fibroblast, BCKD GM00649, procedure Example 812, Assay Condition C
Summary of the method: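 Patient and healthy-control primary fibroblasts switched to supplemented DMEM 24 h before assay, then treated with compound (10 μM) plus H2DCFDA (22 μM) for 2 h (PA, MMA lines) or 24 h (other lines). Kinetic fluorescence at 492/527 nm over 60 min; only live cells analysed.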

HepG2 cells = assay: MitoBiogenesis In-Cell ELISA (COX-I, SDH-A); assay type: cell-based; settings: Homo sapiens, 168 h, 10 uM, 7 days, read-out: % increase in Mitochondrial Biogenesis
Excerpt: We determined the effect of compounds of the present disclosure on the levels of two mitochondrial proteins using MitoBiogenesis™ In-Cell ELISA Kit (Abcam ab110216) according to manufacturer's instructions. The two proteins are each subunits of a different oxidative phosphorylation enzyme complex, one protein being subunit I of Complex IV (COX-1), which is mitochondrial (mt)DNA-encoded, and the other being the 70 kDa subunit of Complex II (SDH-A), which is nuclear (n)DNA-encoded. Complex IV includes several proteins which are encoded in the mitochondrion, while the proteins of Complex II are entirely encoded in the nucleus. HepG2 cells (ATCC, HB-8065) were cultured (5% CO2 at 37° C.) and plated in Poly-D-Lysine 384-Well plate (Corning, 356663) at a density of 40,000 cells/mL in 50 μL. Culture and assay media consisted of DMEM (Gibco, 11995-065) supplemented with 1% Penicillin-Streptomycin and 10% FBS (Hyclone, SV30087.03). Cells were allowed to settle for 30 min at room temperature and further incubated overnight (37° C. and 5% CO2) for adherence. Next day, 50-5 μM of the negative control Chloramphenicol (Selleck, S1677), test compounds (50-10 μM) and vehicle DMSO (0.2%) were added at the recommended volumes to the 384-well plate for 7 days without media change using a Tecan compound dispenser. All the solutions and wash buffers were prepared and dispensed according to manufacturer's volumes for a 384-well plate format. Effects of compounds on mtDNA-encoded protein expression (COX-I) and nuclear DNA-encoded mitochondrial protein expression (SDH-A) were expressed as relative signal (nm) to vehicle of a n=2 per conditions.

Levels of labeled CoA in liver and kidney ([1]; multiple IV doses) | Deuterated (labelled) CoA in cerebellum, cerebrum, remainder of the brain, liver, heart and kidney ([1]; multiple doses (either 3 or 5, IV and oral) of 102.8 mg/kg every 12 hours, vitamin B5-deprived mice, 15 minutes after last dose) | SMILES | Presence of deuterated (labelled) CoA in three brain regions and other organs over time ([1]; multiple IV doses, up to 24 hours after last dose) | activation at 10 µM ([2]; read-out: % Increase in IL-10 Secretion) [%] | inhibition at 10 µM ([2]; read-out: % decrease in Macrophage IL-6 Secretion) [%] | inhibition at 10 µM ([2]; read-out: % decrease in Macrophage TNFα Secretion) [%] | percent decrease in viable Treg cells at 5 days, 50 µM [3] [%] | inhibition at 10 µM ([4]; read-out: Decreased ROS by at least 10%) [%] | inhibition at 10 µM ([4]; read-out: Decreased ROS by at least 30%) [%] | activation at 10 µM (HepG2 cells) [%]
high levels of labeled CoA | results in deuterated (labelled) CoA | [2H]C([2H])([2H])C(COP(=O)(O)O)(C(O)C(=O)NCCC(=O)NCCSC(C)=O)C([2H])([2H])[2H] (stereo not shown) [Compound 1216, S-acetyl-4′-phosphopantetheine-D6] | prolonged presence of deuterated (labelled) CoA |  |  |  |  |  |  | 
 |  | C/C=C/C(=O)SCCNC(=O)CCNC(=O)[C@H](O)C(C)(C)CO [Compound 35, (R)—S-(2-(3-(2,4-dihydroxy-3,3-dimethylbutanamido)propanamido)ethyl) (E)-but-2-enethioate] |  | ≥ 30 | ≥ 30 | ≥ 30 | ≥ 30 | ≥ 10 | ≥ 30 | > 5
